Measurements published in patent publication US20130065897A1, “COMPOUNDS, PREPARATION AND USES THEREOF” (PETER MACCALLUM CANCER INSTITUTE, priority 2009, published 2013).

Columns and labels:
Type in all cases: cell-based
[1] = target: recombinant perforin (UniProt P10820); details: read-out: Jurkat IC50; recombinant perforin pre-incubated 30 min with compound; 51Cr-labelled Jurkat cells, 0.1% BSA, 37° C. 4 hours
Method: Inhibition of Perforin-Mediated Lysis of Jurkat Cells
The ability of the compounds to inhibit the lysis of nucleated (Jurkat T lymphoma) cells in the presence of 0.1% BSA, as measured by release of ^51Cr was measured. Jurkat target cells were labelled by incubation in medium with 100 μCi ^51Cr for one hour. The cells were then washed three times to remove unincorporated isotope and re-suspended at 1×10^5 cells per mL in RPMI buffer supplemented with 0.1% BSA. […] The supernatant was collected and assessed for its radioactive content on a gamma counter (Wallac Wizard 1470 automatic gamma counter). Each data point was performed in triplicate and an IC50 was calculated from the range of concentrations described to above.

[2] = test system: KHYG-1 NK cell-mediated lysis of K562 cells; experiment: Inhibition of KHYG-1 NK cell-mediated lysis of K562 cells (51Cr release); details: K562 target cells, Effector:Target 2:1, 4 hours 37° C.
Method: Inhibition of KHYG-1 NK Cell-Mediated lysis of K562 Cells
KHYG-1 cells were washed and resuspended in RPMI+0.1% BSA at 4×10^5 cells/ml and 50 μl of KHYG-1 cells were dispensed to each well of a 96-well V-bottom, plate. Test compounds were added to KHYG-1 cells at various concentrations up to 20 μM and incubated at RT for 20 minutes. 1×10^6 K562 target cells were labelled with 75 μCi ^51Cr in 200 μl RPMI for 90 mins at 37° C., cells were washed as described above and resuspended in 5 ml RPMI+0.1% BSA. 50 μl of ^51Cr labelled K562 leukemia target cells were added to each well of the KHYG-1 plate (Effector:Target 2:1) and incubated at 37° C. for 4 hours. ^51Cr release was assayed using a Skatron Harvesting Press and radioactivity estimated on a Wallac Wizard 1470 Automatic Gamma counter (Turku, Finland). The percentage of specific cytotoxicity was calculated by the formula: […]
and expressed as the mean of triplicate assays +/−standard error of the mean.

[3] = test system: KHYG-1 NK cells; experiment: Toxicity to KHYG-1 NK cells (trypan blue viability); details: viable cells as percentage of total (% viability), 18 to 24 hours
Method: Toxicity to KHYG-1 NK Cells
KHYG-1 cells were washed and resuspended in RPMI+0.1% BSA at 4×10^5 cells/ml and 50 μl of KHYG-1 cells were dispensed to each well of a 96-well V-bottom plate. Test compounds were added to KHYG-1 cells at a concentration of 20 μM and incubated at RT for 20 minutes. 100 μL of RPMI 0.1% BSA was added and the cells were incubated for 4 hours at 37° C. then washed ×3 in RPMI+0.1% BSA. Cells were then resuspended in 200 μl of complete medium and incubated for 18 to 24 hours at 37° C. Trypan blue was added to each well and viable (clear) cells counted as a percentage of total (clear+blue) cell number (% viability).

recombinant perforin, sequence (P10820 whole entry): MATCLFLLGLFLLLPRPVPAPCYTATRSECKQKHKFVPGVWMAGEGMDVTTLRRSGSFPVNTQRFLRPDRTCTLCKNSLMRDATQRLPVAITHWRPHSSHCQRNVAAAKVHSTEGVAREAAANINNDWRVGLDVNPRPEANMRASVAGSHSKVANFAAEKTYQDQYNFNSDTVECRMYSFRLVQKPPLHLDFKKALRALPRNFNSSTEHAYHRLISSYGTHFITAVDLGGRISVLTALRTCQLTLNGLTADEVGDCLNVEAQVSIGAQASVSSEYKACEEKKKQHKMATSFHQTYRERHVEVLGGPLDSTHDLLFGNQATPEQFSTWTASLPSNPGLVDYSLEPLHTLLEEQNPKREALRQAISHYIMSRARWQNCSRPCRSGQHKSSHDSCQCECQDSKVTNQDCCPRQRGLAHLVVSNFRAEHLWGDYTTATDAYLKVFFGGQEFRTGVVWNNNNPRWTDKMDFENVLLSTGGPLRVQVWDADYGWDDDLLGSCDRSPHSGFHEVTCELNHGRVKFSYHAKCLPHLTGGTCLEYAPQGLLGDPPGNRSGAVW

Structure (SMILES)	IC50 [1] [nM]	inhibition at 20 µM [2] [%]	percent viable KHYG-1 cells (trypan blue) at 20 μM [3] [%]
O=C1NC(=S)N/C1=C\c1ccc(-c2ccc3c(c2)C(=O)NCC3)s1 [Cmpd 81, (E,Z)-7-(5-((5-Oxo-2-thioxoimidazolidin-4-ylidene)methyl)thiophen-2-yl)-3,4-dihydroisoquinolin-1(2H)-one]	670	62	88
O=C1NC(=S)N/C1=C/c1ccc(-c2ccc3c(c2)CN(CCCO)C3=O)s1 [Cmpd 71, (E,Z)-2-(3-Hydroxypropyl)-5-(5-((5-oxo-2-thioxoimidazolidin-4-ylidene)methyl)thiophen-2-yl)isoindolin-1-one]	530	62	88
O=C1NC(=S)N/C1=C/c1ccc(-c2ccc(C(=O)NCC(O)CO)cc2)s1 (stereo not drawn) [Cmpd 40, (E,Z)-N-(2,3-Dihydroxypropyl)-4-(5-((5-oxo-2-thioxoimidazolidin-4-ylidene)methyl)thiophen-2-yl)benzamide]	2440	47	82
N#Cc1cccc(-c2ccc(/C=C3/NC(=S)NC3=O)s2)c1 [Cmpd 34, (E,Z)-3-(5-((5-Oxo-2-thioxoimidazolidin-4-ylidene)methyl)thiophen-2-yl)benzonitrile]	9680	97	99
O=C1NC(=O)/C(=C\c2ccc(-c3ccc4c(c3)CNC4=O)s2)N1 [Cmpd 47, (E,Z)-5-((5-(1-Oxoisoindolin-5-yl)thiophen-2-yl)methylene)imidazolidine-2,4-dione]	400	73	92
CC(C)N1Cc2cc(-c3ccc(/C=C4/NC(=S)NC4=O)s3)ccc2C1=O [Cmpd 52, (E,Z)-2-Isopropyl-5-(5-((5-oxo-2-thioxoimidazolidin-4-ylidene)methyl)thiophen-2-yl)isoindolin-1-one]	4420	77	92
CC(=O)c1ccc(-c2ccc(/C=C3/NC(=S)NC3=O)s2)cc1 [Cmpd 20, (E,Z)-5-((5-(4-Acetylphenyl)thiophen-2-yl)methylene)-2-thioxoimidazolidin-4-one]	1670	90	100
CN1Cc2ccc(-c3ccc(/C=C4/NC(=S)NC4=O)s3)cc2C1=O [Cmpd 73, (E,Z)-2-Methyl-6-(5-((5-oxo-2-thioxoimidazolidin-4-ylidene)methyl)thiophen-2-yl)isoindolin-1-one]	1890	60	85
O=C1NC(=S)N/C1=C/c1ccc(-c2cccc(Cl)c2)s1 [Cmpd 23, (E,Z)-5-((5-(3-Chlorophenyl)thiophen-2-yl)methylene)-2-thioxoimidazolidin-4-one]	7190	92	55
O=C1NC(=S)N/C1=C/c1ccc(-c2ccc(Br)cc2)s1 [Cmpd 32, (E,Z)-5-((5-(4-Bromophenyl)thiophen-2-yl)methylene)-2-thioxoimidazolidin-4-one]	1690	66	83
CN(C)C(=O)c1ccc(-c2ccc(/C=C3/NC(=S)NC3=O)s2)cc1 [Cmpd 39, (E,Z)-N,N-Dimethyl-4-(5-((5-oxo-2-thioxoimidazolidin-4-ylidene)methyl)thiophen-2-yl)benzamide]	6930	89	95
CC(=O)OCCN1Cc2cc(-c3ccc(/C=C4/NC(=S)NC4=O)s3)ccc2C1=O [Cmpd 68, (E,Z)-2-(1-Oxo-5-(5-((5-oxo-2-thioxoimidazolidin-4-ylidene)methyl)thiophen-2-yl)isoindolin-2-yl)ethyl acetate]	1170	86	84
